Literature values in patent US20240251900A1, “PATCH FOR TARGETED DELIVERY OF HAIR COMPOSITION AND METHOD FOR APPLYING SAME” (Better Not Younger Corporation, priority 2022, published 2024).

System: hair follicle
Conditions: Capixyl techsheet page 38

In the case of acetyl tetrapeptide-3, the “stimulation of hair growth versus market reference Minoxidil” value is listed as “stimulate hair growth better than the market reference, Minoxidil”.
